Results as given in article PMC2693909 (Journal of molecular biology, 2009).

Molecular target: Hsc70 NBD (Hsc-70-NBD) (Bos taurus, UniProt P19120)
Assay: […]-1H NMR chemical shift differences, ATP versus ADP.Pi state
Type: binding
Conditions: neutral aqueous solution

Sequence of Hsc70 NBD (Hsc-70-NBD) (P19120 1-383 limits assumed): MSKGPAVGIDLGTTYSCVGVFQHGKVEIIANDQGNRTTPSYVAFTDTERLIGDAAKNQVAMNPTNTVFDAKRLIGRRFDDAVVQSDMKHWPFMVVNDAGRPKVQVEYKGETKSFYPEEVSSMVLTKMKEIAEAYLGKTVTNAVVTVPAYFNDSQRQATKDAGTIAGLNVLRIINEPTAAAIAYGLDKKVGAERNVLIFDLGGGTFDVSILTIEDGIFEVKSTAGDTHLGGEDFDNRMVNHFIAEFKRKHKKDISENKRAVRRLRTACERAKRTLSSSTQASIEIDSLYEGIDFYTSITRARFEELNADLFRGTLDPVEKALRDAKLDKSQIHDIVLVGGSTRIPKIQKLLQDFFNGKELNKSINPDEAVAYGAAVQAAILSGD

| Compound | 15N-1H NMR chemical shift differences, ATP versus ADP.Pi state (ADP.Pi state) | 15N-1H NMR chemical shift differences, ATP versus ADP.Pi state (ATP state) |
| --- | --- | --- |
| Nc1ncnc2c1ncn2[C@@H]1O[C@H](COP(=O)(O)OP(=O)(O)O)[C@@H](O)[C@H]1O [ADP] | NMR spectra of the isolated NBD of Hsc70 between the ADP.Pi and ATP state | – |
| Nc1ncnc2c1ncn2[C@@H]1O[C@H](COP(=O)(O)OP(=O)(O)OP(=O)(O)O)[C@@H](O)[C@H]1O [ATP] | – | NMR spectra of the isolated NBD of Hsc70 between the ADP.Pi and ATP state |
